Source: PubChem BioAssay (NCI)
Several values for one entry are separate records, joined by “and”; a condition that tells them apart may be missing. Identical values can stand only once.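 Growth conditions: 96-well plates. Treatment: test compound, 48 hours, 5 concentrations. Analysis: linear interpolation between bracketing concentrations; unreached endpoints set to highest concentration. GI50 = concentration required for 50% inhibition of growth. The concentration for full growth arrest is given as TGI.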

How the values were obtained:
Assay in all cases: NCI-60 cell line screen, 48 h
[1] = test system: MDA-MB-468 breast
[2] = test system: 786-0 renal
[3] = test system: A498 renal
[4] = test system: A549 NSCLC
[5] = test system: ACHN renal
[6] = test system: BT-549 breast
[7] = test system: CAKI-1 renal
[8] = test system: COLO 205 colon
[9] = test system: EKVX NSCLC
[10] = test system: HCC-2998 colon
[11] = test system: HCT-15 colon
[12] = test system: HL-60(TB) leukemia
[13] = test system: HOP-62 NSCLC
[14] = test system: HS 578T breast
[15] = test system: HT29 colon
[16] = test system: IGROV1 ovarian
[17] = test system: K-562 leukemia
[18] = test system: KM12 colon
[19] = test system: LOX IMVI melanoma
[20] = test system: M14 melanoma
[21] = test system: MALME-3M melanoma
[22] = test system: MCF7 breast
[23] = test system: MDA-MB-231 breast
[24] = test system: MDA-MB-435
[25] = test system: MOLT-4 leukemia
[26] = test system: NCI-H226 lung
[27] = test system: NCI-H23 lung
[28] = test system: NCI-H460 lung
[29] = test system: OVCAR-3 ovarian
[30] = test system: OVCAR-5 ovarian
[31] = test system: PC-3 prostate
[32] = test system: RPMI-8226 leukemia
[33] = test system: RXF 393 renal
[34] = test system: SF-268 CNS
[35] = test system: SF-295 CNS
[36] = test system: SF-539 CNS
[37] = test system: SK-MEL-2 melanoma
[38] = test system: SK-MEL-28 melanoma
[39] = test system: SK-MEL-5 melanoma
[40] = test system: SK-OV-3 ovarian
[41] = test system: SN12C renal
[42] = test system: SNB-19 CNS
[43] = test system: SNB-75 CNS
[44] = test system: SR leukemia
[45] = test system: TK-10 renal
[46] = test system: U251 CNS
[47] = test system: UACC-257 melanoma
[48] = test system: UACC-62 melanoma
[49] = test system: UO-31 renal

`C#C[C@]1(O)CC[C@H]2[C@@H]3CC=C4c5sc(Nc6ccc(OC)nc6)nc5CC[C@]4(C)[C@H]3CC[C@@]21C` showed a GI50 [1] of 1460 nM and a TGI [1] of 3530 nM.
In the case of `CSc1ccc(NC(=O)c2ccc3nn(/C(C#N)=C/c4ccccn4)nc3c2)cc1`, the GI50 [2] was 1700 nM, the TGI [2] was 3130 nM and the GI50 [3] was 1900 nM. It also gave a TGI [3] of 3710 nM, a GI50 [4] of 2340 nM and a TGI [4] of 5990 nM. The GI50 [5] was 1550 nM, the TGI [5] was 2880 nM and the GI50 [6] was 1670 nM. For the same compound, the TGI [6] was 3110 nM, the GI50 [7] was 1070 nM and the TGI [7] was 2350 nM. The GI50 [8] was 1720 nM, the TGI [8] was 3300 nM and the GI50 [9] was 1540 nM. The TGI [9] was 3010 nM, the GI50 [10] was 1650 nM and the TGI [10] was 3010 nM. For the same compound, the GI50 [11] was 1150 nM, the TGI [11] was 2510 nM and the GI50 [12] was 626 nM. The TGI [12] was 3750 nM, the GI50 [13] was 1950 nM and the TGI [13] was 3870 nM. It also gave a GI50 [14] of 2200 nM, a TGI [14] of 7680 nM and a GI50 [15] of 1870 nM. The TGI [15] was 4510 nM, the GI50 [16] was 1740 nM and the TGI [16] was 3360 nM. It also gave a GI50 [17] of 681 nM, a TGI [17] of 5050 nM and a GI50 [18] of 2070 nM. It also gave a TGI [18] of 4440 nM, a GI50 [19] of 1230 nM and a TGI [19] of 2520 nM. For the same compound, the GI50 [20] was 1780 nM, the TGI [20] was 3300 nM and the GI50 [21] was 1450 nM. It also gave a TGI [21] of 2830 nM, a GI50 [22] of 971 nM and a TGI [22] of 2470 nM. It also gave a GI50 [23] of 1520 nM, a TGI [23] of 2970 nM and a GI50 [24] of 1540 nM. It also gave a TGI [24] of 3190 nM, a GI50 [1] of 1080 nM and a TGI [1] of 2590 nM. For the same compound, the GI50 [25] was 796 nM, the TGI [25] was 4630 nM and the GI50 [26] was 1980 nM. The TGI [26] was 4730 nM, the GI50 [27] was 1570 nM and the TGI [27] was 2990 nM. The GI50 [28] was 1880 nM, the TGI [28] was 3950 nM and the GI50 [29] was 991 nM. For the same compound, the TGI [29] was 2640 nM, the GI50 [30] was 1590 nM and the TGI [30] was 3070 nM. For the same compound, the GI50 [31] was 1880 nM, the TGI [31] was 3970 nM and the GI50 [32] was 1770 nM. The TGI [32] was 5710 nM, the GI50 [33] was 1240 nM and the TGI [33] was 2510 nM. It also gave a GI50 [34] of 2360 nM, a TGI [34] of 6210 nM and a GI50 [35] of 1730 nM. It also gave a TGI [35] of 3290 nM, a GI50 [36] of 1670 nM and a TGI [36] of 3040 nM. For the same compound, the GI50 [37] was 1880 nM, the TGI [37] was 3530 nM and the GI50 [38] was 1670 nM. It also gave a TGI [38] of 3050 nM, a GI50 [39] of 1680 nM and a TGI [39] of 3110 nM. For the same compound, the GI50 [40] was 2720 nM, the TGI [40] was 6960 nM and the GI50 [41] was 1870 nM. The TGI [41] was 3970 nM, the GI50 [42] was 1850 nM and the TGI [42] was 4260 nM. It also gave a GI50 [43] of 1420 nM, a TGI [43] of 4260 nM and a GI50 [44] of 1150 nM. It also gave a TGI [44] of 7600 nM, a GI50 [45] of 1750 nM and a TGI [45] of 3210 nM. It also gave a GI50 [46] of 1590 nM, a TGI [46] of 3170 nM and a GI50 [47] of 1640 nM. The TGI [47] was 3170 nM, the GI50 [48] was 1620 nM and the TGI [48] was 3060 nM. It also gave a GI50 [49] of 1200 nM and a TGI [49] of 2430 nM.
With `COc1cccc2c1C(=O)c1c(O)c3c(c(O)c1C2=O)C[C@@](O)(C(C)=O)C[C@@H]3O[C@H]1C[C@H](N)[C@H](O)[C@H](C)O1` the GI50 [1] was 71.6 nM and the TGI [1] was 221 nM.
`C/C(=C1\SC(=NCc2cccs2)NC1=O)c1ccc2ncccc2c1` gave a GI50 [1] of 7130 nM and a TGI [1] of over 25000 nM.
`Cc1ncc(C(=O)Nc2ccc(CN3CCN(C)CC3)c(C(F)(F)F)c2)cc1C#Cc1c(N)ncc2ccc(F)cc12` was tested, and the GI50 [1] was 2820 nM and the TGI [1] was 12000 nM.
With `O=c1oc2ccc(Br)cc2c(=O)n1-c1ccc(Br)cc1F` the GI50 [1] was 819 nM and the TGI [1] was 4320 nM.
`O=C1NC(=NCc2ccccc2Br)S/C1=C\c1ccc2ncccc2c1` gave a GI50 [1] of 4220 nM and a TGI [1] of over 25000 nM.
With `Cn1cc(C2=C(Oc3ccccc3)C(=O)NC2=O)c2ccccc21` the GI50 [1] was over 25000 nM and the TGI [1] was over 25000 nM.
In the case of `Cc1cc(Nc2nc(-c3ccc(F)cc3)nc3ccccc23)n[nH]1`, the GI50 [1] was 2010 nM and the TGI [1] was 11300 nM.
In the case of `C[C@H](NC(=O)c1c(N)nn2cccnc12)c1cc2cccc(C#Cc3cnn(C)c3)c2c(=O)n1-c1ccccc1`, the GI50 [1] was 843 nM and 1460 nM and the TGI [1] was 4550 nM and 9080 nM.
Compound `O=C1Nc2ccccc2/C1=C\c1c[nH]c2ccc(Br)cc12` has a GI50 [1] of 1620 nM and a TGI [1] of 3760 nM.
In the case of `COc1ccc(NC(=O)Nc2ccccc2CNc2nc(Nc3ccc(OCCN4CCCC4)cc3)ncc2Cl)cc1`, the GI50 [1] was 894 nM and the TGI [1] was 1720 nM.
Work on `C=CCNCCN1C(=O)c2ccc3c4c(ccc(c24)C1=O)C(=O)N(CCNCC=C)C3=O` yielded a GI50 [1] of 466 nM and a TGI [1] of 1160 nM.
`Clc1ccc(Nc2nnc(CNc3ccccc3)c3ccccc23)cc1` showed a GI50 [1] of 1900 nM and a TGI [1] of 11500 nM.
`O=C1C=CC=C[C@@H]2C(C3OCCO3)CC[C@H]12.[C-]#[O+].[C-]#[O+].[C-]#[O+].[Fe]` (some centres undefined) showed a GI50 [1] of 35200 nM and a TGI [1] of over 100000 nM.
For `CS(=O)(=O)CCN(CC#N)Cc1ccc(-c2ccc3ncnc(Nc4ccc(OCc5cccc(F)c5)c(Cl)c4)c3c2)o1`, the GI50 [1] was 76.7 nM and the TGI [1] was 1090 nM.
`O=C(NCCCN1CCC(N2CCCCC2)CC1)C1=Cc2cc(Br)ccc2OC1` showed a GI50 [1] of 3150 nM and a TGI [1] of 12600 nM.
`O=c1[nH]cnc2c1ccn2C1OC(CO)C(O)C1O` (centres undefined) was tested, and the GI50 [1] was 762 nM and the TGI [1] was 3730 nM.
In the case of `COc1cc(C2CC(c3cccc(Nc4ccnc5cc(Cl)ccc45)c3)=NN2C=O)cc(OC)c1OC` (centres undefined), the GI50 [1] was 293 nM and the TGI [1] was 1070 nM.
`COc1cc(-c2cc(/C=C3\C(=O)Nc4cc(Cl)ccc43)[nH]n2)cc(OC)c1OC` showed a GI50 [1] of 3170 nM and a TGI [1] of 18200 nM.
Compound `CSc1nc(N)cc(Oc2ccc(-c3nc(Nc4cccc(C(F)(F)F)c4)n[nH]3)cc2)n1` has a GI50 [1] of 360 nM and a TGI [1] of 2660 nM.
In the case of `Clc1ccc(CNc2ccc3nc(CCC4CCCCC4)[nH]c3c2)cc1`, the GI50 [1] was 1570 nM and the TGI [1] was 3470 nM.
`N#C/C(=C/NC(=S)NCc1ccccc1)C(N)=O` gave a GI50 [1] of over 100000 nM and a TGI [1] of over 100000 nM.
Work on `Cc1ccccc1N1CCN(C2=C(Cl)C(=O)c3ncccc3C2=O)CC1` yielded a GI50 [1] of 1600 nM and a TGI [1] of 3180 nM.
With `Cn1cc(-c2nonc2-c2cn(C)c3ccc(F)cc23)c2ccccc21` the GI50 [1] was 515 nM and the TGI [1] was over 84000 nM.
`CCn1c(-c2nonc2N)nc2c(C#CC(C)(C)O)nc(CN3CCCC3)cc21` gave a GI50 [1] of 4150 nM and a TGI [1] of over 25000 nM.
For `O=C1C(Br)=CC2C1C1C3CCC3C2(Br)C12OCCO2` (centres undefined), the GI50 [1] was 1370 nM and the TGI [1] was 4210 nM.
Work on `CCN(CC)c1ccc(/C=N/NC(=O)c2ccc(S(C)(=O)=O)cc2)c(O)c1` yielded a GI50 [1] of 250 nM and a TGI [1] of 1270 nM.
`COc1ccc(C2C(C#N)=C(N)Oc3c2sc2c(F)cccc32)cc1` (centres undefined) was tested, and the GI50 [1] was 1340 nM and the TGI [1] was 10600 nM.
`CCN1C(C)(C)CC(Oc2ccc(C(=O)Nc3ccc(NC(=O)Nc4cc(C(C)(C)C)on4)cc3)nc2)CC1(C)C` was tested, and the GI50 [1] was 3210 nM and the TGI [1] was 8950 nM.
Compound `CCCN1CCN(c2ccc3nc(-c4ccc5nc(-c6ccc(C(F)(F)F)cc6)[nH]c5c4)[nH]c3c2)CC1` has a GI50 [1] of 1780 nM and a TGI [1] of 3390 nM.
`CN1N=C(N)c2cn(C3OC(COP(=O)(O)O)C(O)C3O)c3ncnc1c23` (centres undefined) showed a GI50 [1] of 205 nM and a TGI [1] of 3050 nM.
With `Oc1c(I)cc(I)cc1CNCCN(Cc1ccccn1)Cc1ccccn1` the GI50 [1] was 1670 nM and the TGI [1] was 4850 nM.
`O=C(OCc1nc2nc(Cl)nc(N3CCOCC3)c2[nH]1)n1ccnc1` was tested, and the GI50 [1] was 1850 nM and the TGI [1] was 3540 nM.
